The values below come from publication PMC6368574, “Probing the Inhibition of Microtubule Affinity Regulating Kinase 4 by N-Substituted Acridones” (Scientific Reports, 2019).

In general, IC50 refers to the concentration that gives 50% inhibition. The term melting point denotes the temperature, or range, at which the solid turns liquid.

For series [1], the target named is T1, recombinant MARK4 (Homo sapiens, UniProt Q96L34).
T1 construct: made in house; host or cells: bacterial cells (Luria-Bertani broth, IPTG induction)
T1 sequence (Q96L34 1-752): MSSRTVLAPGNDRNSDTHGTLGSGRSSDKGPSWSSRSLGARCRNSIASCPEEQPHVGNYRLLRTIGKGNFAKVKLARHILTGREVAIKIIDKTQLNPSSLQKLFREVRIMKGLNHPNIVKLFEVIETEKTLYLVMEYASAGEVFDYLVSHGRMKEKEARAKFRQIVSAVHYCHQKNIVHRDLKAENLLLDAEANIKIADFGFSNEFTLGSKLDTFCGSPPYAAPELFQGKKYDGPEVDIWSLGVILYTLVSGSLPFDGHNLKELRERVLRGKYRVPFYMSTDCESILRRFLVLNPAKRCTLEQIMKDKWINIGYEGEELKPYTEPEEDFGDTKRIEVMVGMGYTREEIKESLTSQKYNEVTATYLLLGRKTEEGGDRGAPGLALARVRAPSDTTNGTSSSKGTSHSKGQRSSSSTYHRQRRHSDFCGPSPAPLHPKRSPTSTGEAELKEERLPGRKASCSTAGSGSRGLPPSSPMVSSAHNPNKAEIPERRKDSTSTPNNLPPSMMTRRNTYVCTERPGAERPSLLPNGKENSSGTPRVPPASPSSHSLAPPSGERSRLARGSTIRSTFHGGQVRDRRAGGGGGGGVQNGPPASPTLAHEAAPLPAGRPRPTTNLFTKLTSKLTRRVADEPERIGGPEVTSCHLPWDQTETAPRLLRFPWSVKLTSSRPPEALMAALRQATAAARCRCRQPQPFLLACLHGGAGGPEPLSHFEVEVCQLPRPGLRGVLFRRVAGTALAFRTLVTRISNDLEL
As to the kind of experiment: ATPase enzyme inhibition assay (Malachite Green). It is filed as biochemical. As to the method: To evaluate the inhibition activity of synthesized acridone derivatives against recombinant MARK4, ATPase enzyme inhibition assay was performed (Table S3). […] Our studies were initiated by replacing the ester group of 5 with sterically and electronically diverse amines affording the corresponding amides 7a–j, in order to establish favorable interactions with residues Ala135, Val70, Asp196 and/or Glu182. […] In this case, the docking studies indicate a better fit of 7h compared with 7g in the active site of MARK4 with a binding energy of −9.5 kcal/mol and a stronger predicted hydrogen bond with Ala135 (3.06 Å for 7h, 3.19 Å for 7g).
Enzyme activity of MARK4 was evaluated with the help of standard Malachite Green (Biomol Green reagent, Enzo Life Sciences) microtitre-plate assay as described earlier. Estimated amount of MARK4 (200 ng) and 20 µM ATP as a substrate were incubated for 10–15 min at 25 °C with increasing concentrations (0–20 µM) of synthesized acridone derivatives, in 20 mM Tris buffer, pH 8.0. Reaction was terminated by the adding 100 µl of Biomol Green reagent and absorbance of final reaction products was recorded at 620 nm in a multiplate ELSIA reader (BioRad). In order to quantify the hydrolyzed phosphate, inorganic phosphate standard curve were prepared from the phosphate standard solutions as supplied by the manufacturer (Biomol Green reagent, Enzo Life Sciences). All data points represent triplicate measurements from at least three independent experiments.

Series [2] relates to HepG2 cells. As to the kind of experiment: MTT cell viability assay, HepG2. It is filed as cell-based. Particulars: Homo sapiens, Table S2. As to the method: (§1) Initially, all synthesized acridone derivatives were evaluated for their cytotoxicity potential on MCF-7, HepG2 and HEK293 cell lines by MTT assay. These synthesized acridone derivatives were screened in the concentration range of 0–200 µM, for 24 and 48 h. […] It was also interesting that in the studied […] concentration range these compounds don’t show considerable cytotoxicity towards HEK293 cell lines. […] Thus, compounds 5, 7b, 7d, 7f and 7h were taken for further cell based studies such as apoptosis and reactive oxygen species (ROS) production.
(§2) To study the effect of synthesized acridone derivatives on cell viability and proliferation, a standard MTT method was carried out. Cells were plated (8000–9000/well) in a 96-well plate and incubated overnight. On the next day, cells were treated with increasing concentrations (0.1–80 μM) of synthesized acridone derivatives in a final volume of 200 µl for 48 h at 37 °C in a humidified chamber. At the end of treatment time point, 20 µl of MTT solution (from 5 mg/ml stock solution in phosphate buffer saline, pH 7.4) was added to each well and incubated further for 4–5 h at 37 °C in the CO2 incubator. After stipulated time the supernatant was aspirated and the colored formazan crystal produced as a result of MTT reduction was dissolved in 100 µl of DMSO. The absorbance (A) of colored product was then measured at 570 nm on a multiplate ELISA reader (BioRad). The percentage of viable cells was calculated and used to estimate the IC50 (50% inhibitory concentration) values for each acridone derivative. For cell proliferation studies paclitaxel has been taken as positive control.

Series [3] has as its system HEK293 cells. As to the kind of experiment: MTT cell viability assay, HEK293. It is filed as cell-based. Conditions: Homo sapiens, Table S2. As to the method:
as §1, §2
(Tetrazolium assays rely on reduction of a dye to a coloured formazan, in cell work by metabolically active cells.)

Series [4] has as its system MCF-7 cells. As to the kind of experiment: MTT cell viability assay, MCF-7. It is filed as cell-based. Conditions: Homo sapiens, MCF7; Table S2; MTT; read-out: IC50 (µM) MCF-7. The protocol: as §1, §2
The target of series [5] is T1, recombinant MARK4. Put plainly: Fluorescence binding (quenching, modified Stern-Volmer). Conditions: Table S3; fluorescence binding; read-out: Binding affinity (Ka) (converted). The protocol: To determine the binding affinities of the synthesized acridones with MARK4, we used fluorescence emission spectra measurements. Protein sample was excited at 280 nm and emission was measured in 300–400 nm range with increasing concentrations of each acridone derivative (0–100 µM). A significant decrease in fluorescence intensity of MARK4 with increasing concentrations of each compound was fitted in the modified Stern-Volmer equation to calculate the binding constant, Ka and the number of binding sites per protein molecule (n). All the synthesized acridones have been screened (Supplementary Fig. S6, S7 and Table S3) and those with the highest affinity have been selected (compounds 5, 7b, 7d, 7f and 7h) for further evaluation (Fig. 3). The binding constants of compound 5, 7b, 7d, 7f and 7h were estimated as 6.3 × 10^4 M^−1, 1.0 × 10^6 M^−1, 1.0 × 10^6 M^−1, 1.9 × 10^6 M^−1, and 3.1 × 10^5 M^−1, respectively (Fig. 3).
Figure 3 Fluorescence binding studies of compound 5, 7b, 7d, 7f and 7h with MARK4. (A) Fluorescence emission spectra of MARK4 (10 µM) with increasing concentrations of the respective compound (5, 7b, 7d, 7f and 7h). Excitation wavelength was fixed at 280 nm and emission was recorded in 300–400 nm range. (B) Modified Stern-Volmer plot obtained from fluorescence quenching of MARK4 by compound 5, 7b, 7d, 7f and 7h, respectively. It was used to calculate binding affinity (Ka) and number of binding sites (n).
Binding affinities of synthesized acridone derivatives with recombinant MARK4 was carried out by observing the fluorescence intensity change of emission spectrum of MARK4 by following our previously published protocol[44],[45]. Each titration of protein was performed in triplicates and the average was taken for analysis. A significant decreased in fluorescence intensity of protein with increase in the concentration of acridone derivatives were used as the criteria for deducing the binding constant (Ka) as well as number of binding sites (n) present on the protein molecule using the modified Stern-Volmer equation[46]:1 log(Fo−F)/F=logKa+nlog[L] where, Fo = Fluorescence intensity of native protein, F = Fluorescence intensity of protein in the presence of ligand, Ka = Binding constant, n = number of binding sites, L = concentration of ligand. The values for Ka and n were derived from the intercept and slope, respectively.

Series [6] concerns MARK2. Also on record: method as in PMID 21984823. Particulars: cited from earlier work.
The mark [7] stands for this setting: Table S3, read-out: IC50, (µM), for MARK4 Inhibition.
Setting [8] is: ATPase inhibition, 20 µM ATP, read-out: IC50 against MARK4.

Each structure is given as a SMILES string. Where two headings read alike, the source gives them in different places.

Regarding `Cc1ccc2c(c1)c(=O)c1ccccc1n2CC(=O)N1CCOCC1` [Compound 7a, 2-Methyl-10-(2-morpholino-2-oxoethyl)acridin-9(10H)-one], the IC50 is greater than 20 µM in series [1] (setting [7]), 24.3 µM in series [2], greater than 200 µM in series [3] and 12.3 µM in series [4]. The Kd in series [5] was 501 µM.

For `CCOC(=O)c1cnc(NC(=O)Cn2c3ccccc3c(=O)c3ccccc32)s1` [Compound 30199], the IC50 in series [6] is less than 10 µM.

`Cc1ccc2c(c1)c(=O)c1ccccc1n2CC(=O)N(C)Cc1ccccc1` [Compound 7c, N-benzyl-N-methyl-2-(2-methyl-9-oxoacridin-10(9 H)-yl)acetamide]: the melting point was 131 to 141 °C. Moreover, the “MARK4 inhibition, comparison in words” value in series [1] (ATPase inhibition) is on record as “much weaker inhibitor”. For the same compound, the IC50 in series [1] (setting [7]) was greater than 20 µM. The compound also gave an IC50 in series [2] of 19.4 µM. The compound further showed an IC50 in series [3] greater than 200 µM. Also, in series [4], the IC50 was found to be 11.9 µM. For the same compound, in series [5], the Kd was 501 µM.

`O=C(Cn1c2ccccc2c(=O)c2ccccc21)Oc1ccccc1F` [Compound 30195]: the IC50 in series [6] is less than 10 µM.

Regarding `Cc1ccc2c(c1)c(=O)c1ccccc1n2CC(=O)Nc1ccccc1` [Compound 7e, 2-(2-Methyl-9-oxoacridin-10(9H)-yl)-N-phenylacetamide], the melting point was 290 to 293 °C. Also, the “MARK4 inhibition, comparison in words” value in series [1] (ATPase inhibition) is recorded as “less potent than 7b”. Also, the IC50 in series [1] (setting [7]) was greater than 20 µM. In series [2], this compound yielded an IC50 of 23.8 µM. In series [3], this compound came in with an IC50 greater than 200 µM. The IC50 in series [4] worked out at 13.8 µM. In series [5], the Kd is 1580 µM.

`COc1ccc(NC(=O)Cn2c3ccccc3c(=O)c3cc(C)ccc32)cc1` [Compound 7g, N-(4-methoxyphenyl)-2-(2-methyl-9-oxoacridin-10(9H)-yl)acetamide] returned a melting point of 282 to 286 °C. Also, the IC50 in series [1] (setting [8]) was greater than 20 µM. Besides, the IC50 in series [1] (setting [7]) is greater than 20 µM. The same compound had an IC50 in series [2] of 21.2 µM. This compound displayed an IC50 in series [3] greater than 200 µM. In addition, in series [4], the IC50 worked out at 14.3 µM. Also, the Kd in series [5] was 158 µM.

With `COc1ccc2c(c1)c(=O)c1ccccc1n2CC(=O)Nc1cccc(C(F)(F)F)c1` [Compound 30019], the IC50 in series [6] is less than 10 µM.

For the compound `N#Cc1ccc(NC(=O)Cn2c3ccccc3c(=O)c3ccccc32)cc1` [Compound 30197], the IC50 in series [6] is less than 10 µM.

In the case of `COC(=O)c1ccc(NC(=O)Cn2c3ccccc3c(=O)c3cc(C)ccc32)cc1` [Compound 7i, Methyl 4-(2-(2-methyl-9-oxoacridin-10(9H)-yl)acetamido)benzoate], the IC50 is greater than 20 µM in series [1] (setting [8]), 25.1 µM in series [2], greater than 200 µM in series [3] and 14.1 µM in series [4]. Moreover, in series [5], the Kd is 1580 µM.

Consider `CC(=O)c1ccc(NC(=O)Cn2c3ccccc3c(=O)c3cc(C)ccc32)cc1` [Compound 7j, N-(4-acetylphenyl)-2-(2-methyl-9-oxoacridin-10(9H)-yl)acetamide], for which the melting point lay within 306 to 309 °C. In addition, the 50% inhibitory concentration (IC50) in series [1] (setting [8]) is greater than 20 µM. This compound also came in with an IC50 in series [2] of 24.4 µM. In series [3], this compound displayed an IC50 greater than 200 µM. In addition, the IC50 in series [4] was determined as 16.3 µM. The Kd in series [5] is 501 µM.
